Test results as given in patent US20020192314A1, “Dietary supplement compositions” (priority 2001, published 2002).

Test system: LDL cholesterol
Experiment: LDL cholesterol oxidation lag time, copper ions, absorbance at 234 nm
Format: biochemical, human
Conditions: copper ions 5 μmole/L
Experimental: The antioxidant properties of a dietary supplement can be measured using an assay for LDL cholesterol oxidation. Briefly, blood samples are drawn and LDL cholesterol is isolated. The isolated LDL cholesterol is combined with a dietary supplement to be evaluated, and the time (i.e., lag time) before cholesterol oxidation is observed is measured. Copper ions accelerate the production of conjugated dienes due to oxidation, while antioxidants prolong the onset of diene production. Since dienes absorb light at 234 nm, LDL cholesterol oxidation can be monitored by examining the absorbance at 234 nm as a function of time. Thus, the antioxidant properties of, for example, a dietary supplement or other compound can be evaluated by determining the time elapsed before LDL cholesterol oxidation is observed.
LDL cholesterol oxidation is usually determined by measuring absorbance at 234 nm (AbS234 nm) as a function of time under oxidative conditions. The antioxidant effectiveness of various grape seed extracts was determined. LDL cholesterol was prepared from human volunteer blood samples as described above. Isolated LDL cholesterol was then mixed with a buffer, vitamin E, or grape seed extract. Copper ions (5 μmole/L final concentration) were added to each sample. Grape seed extracts were prepared at 0.5 or 1.0 mg/L final concentration. […]

Vitamin E
time LDL cholesterol protected from oxidation: about 125 min | LDL oxidation lag time (grape seed extract 0.5 mg/L, vitamin E amount comparable to blood level after 400 IU): 125 min
